Where no end group is shown, it is not given here.
Assays:
[1] = background; cited from earlier work
[2] = background; geldanamycin Phase I clinical trials; cited from earlier work
beta-COP = test: Binding of beta-COP from mouse brain extract to Sulfolink-peptide affinity matrix, western analysis; details: FIG. 1B; for amount of beta-COP bound by the di-serine control relative to the parent di-lysine peptide matrix: western, 672 BC1 vs OTOF CTERM E47, 670 CC1 vs OTOF CTERM E48; for amount of beta-COP binding the peptide matrix: western with antibody to beta-COP
Protocol: Antibody to beta-COP was obtained from Oncogene Research Products (EMD Biosciences, Ind.) (Product No. PC175) and used at a 1:1500 dilution. Antibody to mouse Hsp90α was obtained from Stressgen (Victoria, Canada), Product No. SPS-771 and used at a 1:1000 dilution.
(§1) Sulfolink-peptide affinity columns were synthesized using the Sulpholink Kit (Pierce Biotechnology, Inc., Rockford, Ill., Product No. 44895) according to their protocol. Peptides were stored at 4° C. in a lyophilized state in a sealed desiccator. Approximately 2 mg of peptide is weighed and suspended in 0.4 ml of DMSO. This peptide solution is immediately diluted into 2 ml of coupling buffer and mixed (100 μl is removed for quantization) then added to 4 ml of a 50% slurry of Sulfolink gel equilibrated in coupling buffer in a small plastic column. The combination is mixed for 15 minutes at room temperature by rotation. The mixture is further incubated for 30 minutes at room temperature without mixing. The column is washed with coupling buffer, then blocked with freshly made 0.5 M cysteine, further washed with a Wash buffer. The peptide affinity matrix was removed from the column to a 50 ml conical tube and stored as a 50% slurry in PBS containing 0.05% sodium azide at 4° C.
Total mouse brain from deeply anthesized adult mice is excised and flash frozen in liquid nitrogen and stored at −80° C. The frozen brain is pulverized in a mortar and pestle under liquid nitrogen and suspended in TNGD (TRIS 50 mM pH7.5, NaCl 75 mM, EGTA 10 mM, EDTA 2 mM) with protease inhibitors (10 μl/ml of protease inhibitor cocktail for mammalian cells, Sigma Chemical Co. No. P8340) at 1 ml/100 mg of tissue. This mixture is homogenized in a Potter-Elvehjem Teflon glass homogenizer on ice. The homogenate is centrifuged for 10 minutes at 4° C. in an IEC minifuge at 13,200 RPM. The pellet is discarded. The supernatant is used immediately or frozen and stored at −80° C.
All steps of protein purification were done at 4° C. in a Handee Spin Cup Column (Pierce Biotechnology, Inc., Rockford, Ill., Product No. 69700) in the presence of protease inibitor (10 μl/ml of protease inhibitor cocktail for mammalian cells, Sigma Chemical Co. No. P8340). Fifty μl of a 50% slurry of Sulfolink-peptide was washed five times with 0.4 ml of TNGD. Mouse brain extract supernatant (100 μl) was allowed to absorb to the gel by mixing by rotation for 30 minutes. Following absorption the gel is washed five times with 0.4 ml TNGD. Specific elution is described in the results.
Protein samples are made 1× with ImmunoPure Lane Marker Non-Reducing Sample Buffer (5×) (Pierce Biotechnology) and heated for 5 minutes at 95° C. Samples are separated on a 4-20% Linear Gradient Ready Gel (BIO-RAD Laboratories, Hercules, Calif., Product No. 161-1105). Polyacrylamide gels are stained with BIORAD Silver Stain Plus Kit (No. 161-0449) or Bio-Safe Coomassie Stain or electro-blotted to PVDF membrane (BIO-RAD) for Western blot analysis, according to directions provided by the manufacturer. Specific antibody binding is detected using ECL Western Blotting System (Amersham Biosciences Corp., Piscataway, N.J., Product No. RPN2108). Molecular weight standards used were the BIO-RAD Precision Protein Standards, Prestained, Broad Range (Product No. 161-0372). Chemiluminecence is detected using Kodak Biomax ML Scientific Imaging Film (Product No. 868-9358).
Mouse brain extracts were absorbed to the four peptide matrix columns as described in the methods. Column matrix was transferred to PCR tubes and made 1× with SDS buffer and heated for 5 minutes at 95° C. After heating the samples were centrifuged for 1 minute at 300×g and the supernatant separated by SDS gel electrophoresis on two separate gels.

recombinant human Hsp90α = target: T1, recombinant human Hsp90α (Homo sapiens, UniProt P07900); test: Binding of purified recombinant human Hsp90α to peptide affinity columns, 600 mM NaCl elution, silver stain; details: for binding of Hsp90α to the peptide affinity column: 400 ng recombinant human Hsp90α, BSA-preabsorbed column, 4° C., silver stain, FIG. 5; for protein corresponding to Hsp90 molecular weight eluted with 600 mM NaCl, share of protein added: scan of silver stained gel, elution with TNGD + 600 mM NaCl
T1 construct: purchased Stressgen SPP-776
Protocol: Fifty μl of 50% slurry of OTOF CTERM E47 and OTOF CTERM E48 Sulfolink affinity matrix were equilibrated with four washes of 0.4 ml of TNGD buffer in Handee Spin Cup Columns (Pierce, Rockford). The columns was preabsorbed with 100 μl of 10% BSA for 30 minutes at 4° C. and mixed by rotation. The columns were then washed five times with 0.4 ml of TNGD. Four hundred (400) ng of recombinant human Hsp90α (Stressgen SPP-776, Lot No. B201401) in 100 μl of TNGD was added to each column for 30 minutes at 4° C. and mixed by rotation. The unabsorbed protein was removed by centrifugation. The columns were washed five times with 0.4 ml of TNGD, then eluted with 100 μl TNGD+600 mM NaCl. Samples were analyzed on a 4-20% SDS-PAGE gel followed by silver staining using a BIORAD Silver Stain Plus kit (No. 161-0449) as show in FIG. 5. […] The amount of protein added and eluted was determined by scanning the silver stained gel using a Alpha Imager 2200 gel imaging system.

Hsp90α (p97, HS9A_MOUSE) = target: T2, Hsp90α (p97, HS9A_MOUSE) (Mus musculus, UniProt P07901); test: Binding of mouse brain extract protein p97 (identified as Hsp90α) to Sulfolink-peptide affinity matrix, SDS-PAGE Coomassie stain; details: Coomassie stained gel, FIG. 1A
T2 construct: Total mouse brain from deeply anthesized adult mice is excised and flash frozen in liquid nitrogen; from tissue; host or cells: adult mouse brain, 13,200 rpm supernatant of homogenate
Protocol: as §1, with “The peptide affinity matrix was removed from the column to a 50 ml conical tube and stored as a 50% slurry in PBS containing 0.05% sodium azide at 4° C.” left out
Protein samples are made 1× with ImmunoPure Lane Marker Non-Reducing Sample Buffer (5×) (Pierce Biotechnology) and heated for 5 minutes at 95° C. Samples are separated on a 4-20% Linear Gradient Ready Gel (BIO-RAD Laboratories, Hercules, Calif., Product No. 161-1105). […] Specific antibody binding is detected using ECL Western Blotting System (Amersham Biosciences Corp., Piscataway, N.J., Product No. RPN2108). […] Chemiluminecence is detected using Kodak Biomax ML Scientific Imaging Film (Product No. 868-9358). […]

binding of Hsp90α to the peptide affinity column (recombinant human Hsp90α) | protein corresponding to Hsp90 molecular weight eluted with 600 mM NaCl, share of protein added (recombinant human Hsp90α) | Compound | water / aqueous solubility [1] | hepatotoxicity [2] | amount of beta-COP bound by the di-serine control relative to the parent di-lysine peptide matrix (beta-COP) | amount of beta-COP binding the peptide matrix (beta-COP) | other results
– | – | COC1=C2C[C@@H](C)C[C@H](OC)[C@H](O)[C@@H](C)/C=C(\C)[C@H](OC(N)=O)[C@@H](OC)/C=C\C=C(/C)C(=O)NC(=CC1=O)C2=O [geldanamycin] | poor water solubility | hepatotoxicity | – | – | –
– | – | CYSLPGYLASSILGA (peptide corresponding to the C-terminus of an otoferlin isoform with di-lysine replaced by di-serine) [672 BC1, E47 peptide control with the di-lysine replaced with di-serine, reference compound] | – | – | about half | – | –
does not bind | no eluted protein was detected | CYSLPGYLAKKILGA (also: coupled to Sulfolink matrix) [OTOF CTERM E47, C-terminus 14 amino acids of the brain otoferlin isoform with added N-terminal cysteine, coupled to Sulfolink matrix] | – | – | – | similar | amount of beta-COP binding the peptide matrix (beta-COP; listed as E47): specific binding
– | – | C=CCNC1=C2C[C@@H](C)C[C@H](OC)[C@H](O)[C@@H](C)/C=C(\C)[C@H](OC(N)=O)[C@@H](OC)/C=C\C=C(/C)C(=O)NC(=CC1=O)C2=O [Peptide 17-AAG, 17-(allylamino)-17-desmethoxygeldanamycin] | limited aqueous solubility | reduced hepatotoxicity | – | – | –
– | – | CYSLPGYMVSSLLGA (peptide corresponding to the C-terminus of an otoferlin isoform with di-lysine replaced by di-serine) [670 CC1, E48 peptide control with the di-lysine replaced with di-serine, reference compound] | – | – | about a tenth | – | –
specifically binds | Approximately 10% | CYSLPGYMVKKLLGA (also: coupled to Sulfolink matrix) [OTOF CTERM E48, C-terminus 14 amino acids of the cochlear otoferlin isoform with added N-terminal cysteine, coupled to Sulfolink matrix] | – | – | – | similar | binding of a protein at approximately 97 kilo-daltons (p97, Hsp90α) to the peptide matrix (Hsp90α (p97, HS9A_MOUSE)): higher levels; binding of a protein at approximately 97 kilo-daltons (p97, Hsp90α) to the peptide matrix (Hsp90α (p97, HS9A_MOUSE); listed as E48): specific binding; amount of beta-COP binding the peptide matrix (beta-COP; listed as E48): specific binding
